According to patent US20150316565A1, “Methodologies and Reagents for Detecting Fibrinolysis and Hyperfibrinolysis” (Haemonetics Corporation, priority 2014, published 2015):

How the values were obtained:
[1] = test system: fibrinolysis in citrated whole blood; assay: Citrated Kaolin (CK) TEG assay, blood spiked with increasing t-PA, LY30; design: species or system human; details: 15 healthy donors, eight t-PA concentrations, FIG. 9
Description: For the Citrated Kaolin group, citrated blood from each of the donors (e.g., whole blood collected into a tube containing sodium citrate (thereby creating a ratio blood to citrate of approximately 9:1) is collected. For eight different tPA concentrations, 0.5 ml of the blood was gently mixed with Kaolin (a coagulation activator) and increasing concentrations of t-PA to induce fibrinolysis. Aliquots were transferred to 37° C. TEG cups, and the samples were analyzed using the TEG 5000 device, and the LY30 calculated for each of the 15 donors at each of the tPA concentrations. The results plotting the LY30 against the t-PA concentration are shown in FIG. 9.

[2] = test system: fibrinolysis in citrated blood with FF reagent (GPIIb/IIIa receptor antagonist); assay: Functional Fibrinogen TEG assay with/without TXA, blood spiked with increasing t-PA, ΔLY30; design: species or system human; details: 15 healthy donors, eight t-PA concentrations, FIG. 10
Description: The two TEG cups for each of the fifteen donors at the eight different t-PA concentrations were analyzed on a TEG 5000 device.

[3] = test system: fibrinolysis in a blood sample with reduced platelet function; assay: Functional Fibrinogen (FF) TEG assay with and without tranexamic acid (TXA)

tPA: tissue plasminogen activator, converts inactive plasminogen to active plasmin; spiked into blood to induce fibrinolysis
Detection threshold [tPA] for CK-LY30 [1]: 75 to 100 ng/mL | Detection threshold [tPA] for ΔLY30 [2]: 25 to 50 ng/mL

NC[C@H]1CC[C@H](C(=O)O)CC1 [TXA, tranexamic acid]
LY30 ([3]; TXA-treated sample of FIG. 6, amplitude at 74 minutes, the sample not treated with TXA had LY30 approximately 50%): approximately 0.1% | TEG tracing of the TXA-treated portion compared with the portion not treated with TXA ([3]; blood from a patient with fibrinolysis or hyperfibrinolysis, FIGS. 5 and 6, divergence from about 2 minutes): higher amplitude, faster growing TEG tracing
